Reference: patent publication US8993721B2, “Peptides for targeting apoptotic cells and uses thereof” (Kyungpook National University Industry-Academic Cooperation …, priority 2008, dated 2015)
Entries after “also recorded” stand apart in the source; their conditions may differ. Where no end group is shown, it is not given here.

What was measured:
[1] = tested on: aorta of arteriosclerotic Ldlr(−/−) mouse; experiment: Molecular imaging of arteriosclerosis (Example 5); format: in vivo
Method: An arteriosclerotic animal model was established by feeding mice, in which low-density lipoprotein (LDL) receptor was deficient (Ldlr(−/−)) genetically, with a high-cholesterol diet for 8 weeks. At the tail vein of the arteriosclerotic mouse and normal mouse, the peptide having an amino sequence represented by SEQ ID NO: 1 (ApoPep-1) or a control peptide, labeled with Cy7.5 NIR fluorescence, was injected at a final concentration of 50 μM, under isoflurane anesthesia. Two hours later, with the mouse anesthetized, in vivo images of the NIR fluorescence were obtained using an Optix exPlore instrument. Following the in vivo imaging, NIR fluorescence was measured […] after isolating the aorta.

[2] = tested on: heart of myocardial ischemic rat (ischemia/reperfusion model); experiment: Molecular imaging of myocardial ischemia (Example 7); format: in vivo; details: Cy7.5-labeled peptide i.v. 2 hours after reperfusion; imaged 2 hours after injection
Method: A myocardial ischemia model was established by occluding the coronary artery of a rat, followed by reperfusion (ischemia/reperfusion model). For the operation, a rat was anesthetized by intra-abdominally injecting 10 mg of phenobarbital and, followed by endobronchial intubation, a ventilator was connected. Thereafter, the thorax was cut open to expose the heart. The left anterior descending coronary artery was occluded for 30 minutes using a suture and, then, the blood was allowed to circulate. For a control group (Sham), the same operation was performed, except for the occlusion. Two hours after the reperfusion, the peptide having an amino sequence represented by SEQ ID NO: 1 (ApoPep-1), labeled with Cy7.5 NIR fluorescence, was intravenously injected to the rats of the myocardial ischemia group and the control group. Two hours after the peptide injection, NIR images of the heart portion were obtained. Then, NIR images were obtained after isolating the heart.

[3] = tested on: apoptotic cells in A549 tumor tissue xenotransplanted in nude mouse; experiment: Histological analysis of tumor targeting (Example 8); format: in vivo; details: fluorescein-labeled peptide, tail vein, 50 μM
Method: All animal experiments were performed in accordance with the guideline of the Institutional Animal Care and Use Committee. For tumor xenotransplantation, human lung cancer cells (A549, 1×10^6 cells) suspended in RMPI-1640 medium was subcutaneously injected at the right upper or lower limb of a 6-week-old male BALB/c nude mouse (Hyochang Science). Then, 3 to 4 weeks were given for the tumor to grow to a size of 0.5 to 1 cm. The A549 cell line used in the experiment was cultured in RMPI-1640 medium containing 10% fetal bovine serum (FBS) in which antibiotics (penicillin and streptomycin) were included. Subculturing was performed every 3 or 4 days.
The peptides used in the present invention were fluorescein-attached form at the N-terminal. They were synthesized according to the standard Fmoc technique and then isolated through HPLC. The peptide synthesis was performed by an expertise company (Peptron). […]
For histological analysis, the mouse was anesthetized and the abdomen was cut open. […] After treatment with a mounting solution containing the nuclear stain 4′,6-diamidino-2-phenylindole (DAPI) (Invitrogen), images of the cells were obtained under a fluorescence microscope (Zeiss).

[4] = tested on: etoposide-treated apoptotic A549 cells; experiment: Microscopic observation of binding of the peptide to apoptotic cells, A549 (Example 9-1); format: cell-based, human
Method: (§1) Cells were cultured in chamber slide (Nunc) and treated with 50 μM etoposide (Sigma) for 16 hours (A549 cells) or 50 ng/ml trail (R&D Systems) for 16 hours (MDA-MB231 cells) to induce apoptosis. The cells were cultured in RMPI-1640 medium (A549 cells) or DMEM-High (MDA-MB231 cells) containing antibiotics (penicillin and streptomycin) and 10% FBS. All the cells were sub-cultured every 3 or 4 days. The apoptosis-induced apoptotic cells were washed with PBS and blocked with 1% BSA at 37° C. for 30 minutes. Then, the cells were reacted with 10 μM of the peptide labeled with fluorescein, at 4° C. for 1 hour. After washing, the cells were reacted with an annexin V reaction buffer containing Alexa594-labeled annexin V (Invitrogen) at room temperature for 15 minutes. The cells were washed with PBS and then fixed with 4% paraformaldehyde for 5 minutes. After treatment with a mounting solution containing the DAPI nuclear stain, images of the cells were obtained under a fluorescence microscope.

[5] = tested on: trail-treated apoptotic MDA-MB231 cells; experiment: Microscopic observation of binding of the peptide to apoptotic cells, MDA-MB231 (Example 9-1); format: cell-based
Method: as §1

apoptotic A549 cells = experiment: Competitive inhibition of binding to apoptotic cells by annexin V treatment (Example 9-2); format: cell-based, human; details: annexin V 1000 μM pre-treatment
Method: In order to further investigate the binding properties of the polypeptide of the present invention (ApoPep-2) to apoptotic cells, competitive inhibition by annexin V was measured. To this end, first, apoptotic A549 cells were pre-treated with annexin V, not labeled with fluorescence, at concentrations of 0, 500 and 1000 μM. Then, after reacting the cells with fluorescence-labeled annexin V under the same condition as described in Example <9-1>, the binding of the cells was observed under a fluorescence microscope.
Further, apoptotic A549 cells were pre-treated with annexin V, not labeled with fluorescence, at a concentration of 1000 μM. Then, after reacting the cells with fluorescence-labeled peptide under the same condition as described in Example <9-1>, the binding of the cells was observed under a fluorescence microscope.

[6] = tested on: etoposide-treated apoptotic A549 cells; experiment: FACS analysis of binding to apoptotic cells (Example 9-3); format: cell-based, human
Method: As another way of confirming the binding of the polypeptide of the present invention (ApoPep-2) to apoptotic cells, apoptotic cells were treated with the peptide, labeled with fluorescein, and the binding was confirmed through FACS analysis. First, apoptosis was induced by treating A549 cells with 50 μM etoposide for 20 hours. The apoptotic cells or normal cells were reacted with ApoPep-2 (10 μM) or a control peptide at the same concentration, labeled with fluorescein, at 4° C. or 37° C. for 1 hour. Further, the cells were reacted with fluorescein-labeled annexin V at room temperature for 15 minutes. After washing cells with PBS, FACS analysis was performed using a FACS instrument (Becton Dickinson).

[7] = tested on: A549 tumor xenotransplanted in nude mice; experiment: In vivo fluorescence imaging of targeting of apoptotic cells in tumor (Example 10); design: species or system mouse; details: fluorescein-labeled; large tumor (1 cm or larger)
[8] = 10 μM peptide 4° C. 1 hour, Alexa594-annexin V

Substance | NIR fluorescence imaged from the back, normal mouse ([1]; Cy7.5-labeled peptide 50 μM) | NIR fluorescence imaged from the back, arteriosclerotic mouse, compared with control peptide ([1]; Cy7.5-labeled peptide 50 μM, tail vein, two hours later) | NIR fluorescence after exposing the aorta by cutting the abdomen open, compared with control peptide ([1]; arteriosclerotic mouse) | intensity of the fluorescence relative to the control peptide ([1]; arteriosclerotic mouse, back image (FIG. 8B)) | NIR fluorescence of the heart portion, myocardial ischemic rat versus control group (Sham) rat [2] | binding to cells stained by TUNEL (apoptotic cells) in the tumor tissue ([3]; 2 hours) | peptide fluorescence observed in the tumor tissue ([3]; 2 hours circulation) | labeling of A549 cells not treated with etoposide [4, 8] | labeling of etoposide-treated apoptotic A549 cells ([4]; 50 μM etoposide 16 hours, 10 μM fluorescein-labeled peptide 4° C. 1 hour, Alexa594-annexin V) | location of peptide binding relative to annexin V binding (merge), A549 ([4]; etoposide-treated apoptotic cells) | labeling of trail-treated apoptotic MDA-MB231 cells ([5]; 50 ng/ml trail 16 hours, 10 μM fluorescein-labeled peptide 4° C. 1 hour, Alexa594-annexin V) | labeling of MDA-MB231 cells not treated with trail [5, 8] | location of peptide binding relative to annexin V binding (merge), MDA-MB231 ([5]; trail-treated apoptotic cells) | binding of fluorescence-labeled peptide after pre-treatment with unlabeled annexin V (apoptotic A549 cells) | binding to normal cells (FACS) ([6]; A549 without etoposide, 10 μM, 4° C. or 37° C.) | cells bound to the peptide at 4° C. ([6]; etoposide 20 hours, peptide 10 μM, 4° C. 1 hour) [%] | cells bound to the peptide at 37° C. ([6]; etoposide 20 hours, peptide 10 μM, 37° C. 1 hour) [%] | fluorescence signal from the tumor at 5 hours [7]
CQRPPR (also: fluorescein or Cy7.5 label) [ApoPep-1, peptide CQRPPR screened for macrophages; used fluorescein- or Cy7.5-labeled] | almost nonexistent | stronger NIR fluorescence | much stronger | about two times that of the control peptide | much stronger NIR fluorescence | – | – | – | – | – | – | – | – | – | – | – | – | –
CSVAPR (also: fluorescein or Cy7.5 label) [ApoPep-2, peptide CSVAPR screened for endothelial cells; used fluorescein- or Cy7.5-labeled] | – | – | – | – | – | target the tumor tissue and mainly bind to the tumor cells undergoing apoptosis; also recorded: binds to the cells stained by TUNEL | observed in the tumor tissue | hardly bound to the untreated cells; also recorded: no labeling was observed | strongly bound to the apoptotic cells; also recorded: labeling was observed | at the same locations | strongly bound to the apoptotic cells; also recorded: labeling was observed | hardly bound to the untreated cells; also recorded: no labeling was observed | at the same locations | not inhibited | almost nonexistent or minimal | 28 | 48 | strong fluorescence signal
